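Method: 48-hour compound exposure of cells in 96-well plates, five concentrations, linear interpolation of endpoints. Abbreviation: GI50, concentration required for 50% inhibition of growth.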 Calls of active or inactive are those of the source. Rule as the data show it: active = GI50 up to about 1.1 µM and inactive = higher.
What was measured:
Assay in all cases: NCI-60 cell line screen, 48 h
RPMI-8226 = test system: RPMI-8226
SK-OV-3 = test system: SK-OV-3
SNB-19 = test system: SNB-19
HCT-15 = test system: HCT-15
PC-3 = test system: PC-3
UACC-257 = test system: UACC-257
OVCAR-4 = test system: OVCAR-4
HOP-92 = test system: HOP-92
NCI-H23 = test system: NCI-H23
MDA-MB-435 = test system: MDA-MB-435
SF-295 = test system: SF-295
UACC-62 = test system: UACC-62
TK-10 = test system: TK-10
A549 = test system: A549
MDA-MB-231 = test system: MDA-MB-231
HCC 2998 = test system: HCC 2998
HCT-116 = test system: HCT-116
MDA-N = test system: MDA-N
COLO 205 = test system: COLO 205
EKVX = test system: EKVX

SMILES | GI50 (RPMI-8226) | GI50 (SK-OV-3) | GI50 (SNB-19) | GI50 (HCT-15) | GI50 (PC-3) | GI50 (UACC-257) | GI50 (OVCAR-4) | GI50 (HOP-92) | GI50 (NCI-H23) | GI50 (MDA-MB-435) | GI50 (SF-295) | GI50 (UACC-62) | GI50 (TK-10) | GI50 (A549) | GI50 (MDA-MB-231) | GI50 (HCC 2998) | GI50 (HCT-116) | GI50 (MDA-N) | GI50 (COLO 205) | GI50 (EKVX)
CC(=O)NC(Cc1ccccc1)NC(=O)O (stereo not given) | > 100 µM (inactive) | > 100 µM (inactive) | > 100 µM (inactive) | > 100 µM | > 100 µM (inactive) | > 100 µM (inactive) | > 100 µM (inactive) | > 100 µM (inactive) | > 100 µM (inactive) | > 100 µM (inactive) | > 100 µM (inactive) | > 100 µM (inactive) | > 100 µM (inactive) | > 100 µM (inactive) | > 100 µM (inactive) | > 100 µM (inactive) | > 100 µM (inactive) | > 100 µM (inactive) | > 100 µM (inactive) | > 100 µM (inactive)
[O-][n+]1c(CN2CCCCC2)nc2cccc3c2c1-c1ccccc1-3 | 23.7 µM (inactive) | 26.1 µM (inactive) | 23.9 µM (inactive) | 26.9 µM | 31.3 µM (inactive) | 18.4 µM (inactive) | 31.3 µM (inactive) | 25.1 µM (inactive) | 20.3 µM (inactive) | 32.1 µM (inactive) | 28.7 µM (inactive) | 16.4 µM (inactive) | 27.2 µM (inactive) | 15.7 µM (inactive) | 23 µM (inactive) | 15 µM (inactive) | 12.8 µM (inactive) | 22.4 µM (inactive) | 16.9 µM (inactive) | 18.4 µM (inactive)
Cn1c(-c2ccccc2)cc(-c2cccs2)c1-c1ccsc1 | 64.1 µM (inactive) | > 100 µM (inactive) | > 100 µM (inactive) | > 100 µM | > 100 µM (inactive) | > 100 µM (inactive) | > 100 µM (inactive) | > 100 µM (inactive) | > 100 µM (inactive) | > 100 µM (inactive) | > 100 µM (inactive) | > 100 µM (inactive) | > 100 µM (inactive) | > 100 µM (inactive) | > 100 µM (inactive) | > 100 µM (inactive) | 61.5 µM (inactive) | > 100 µM (inactive) | > 100 µM (inactive) | > 100 µM (inactive)
Cc1ccc(/C=C2\CN(C)CC3=C2OC(N)=C(C#N)C3c2ccc(C)cc2)cc1 (stereo not given) | 9.98 µM (inactive) | 9.84 µM (inactive) | 26.4 µM (inactive) | 14.1 µM | 15.7 µM (inactive) | 18.8 µM (inactive) | 12.2 µM (inactive) | 1.05 µM (active) | 16 µM (inactive) | 15.8 µM (inactive) | 16.8 µM (inactive) | 18.4 µM (inactive) | 31.5 µM (inactive) | 14.4 µM (inactive) | > 38.5 µM (inactive) | 15.2 µM (inactive) | 12.6 µM (inactive) | 17.2 µM (inactive) | 17 µM (inactive) | 17.1 µM (inactive)
CC(C)=CC(Cc1ccccc1)S(=O)(=O)c1nc2ccccc2s1 (stereo not given) | 10.5 µM (inactive) | 22.4 µM (inactive) | 17.4 µM (inactive) | 17.7 µM | 16.7 µM (inactive) | 21 µM (inactive) | 15.9 µM (inactive) | 16.6 µM (inactive) | 13.5 µM (inactive) | 11 µM (inactive) | 26.6 µM (inactive) | 17.2 µM (inactive) | 20 µM (inactive) | 23.4 µM (inactive) | 19.8 µM (inactive) | 19.2 µM (inactive) | 14 µM (inactive) | 8.13 µM (inactive) | 17 µM (inactive) | 19.6 µM (inactive)
C=C1CCN2CC[C@@H](OC(=O)/C(C)=C\C)[C@@H]12 | > 100 µM (inactive) | > 100 µM (inactive) | > 100 µM (inactive) | > 100 µM | > 100 µM (inactive) | > 100 µM (inactive) | > 100 µM (inactive) | > 100 µM (inactive) | > 100 µM (inactive) | > 100 µM (inactive) | > 100 µM (inactive) | > 100 µM (inactive) | > 100 µM (inactive) | > 100 µM (inactive) | > 100 µM (inactive) | > 100 µM (inactive) | > 100 µM (inactive) | > 100 µM (inactive) | > 100 µM (inactive) | > 100 µM (inactive)
ClC1=C(Cl)C(Cl)(Cl)SS1 | 3.44 µM (inactive) | > 10 µM (inactive) | > 10 µM (inactive) | > 7.82 µM | > 10 µM (inactive) | > 5.09 µM (inactive) | > 5.93 µM (inactive) | > 5.57 µM (inactive) | > 10 µM (inactive) | > 10 µM (inactive) | > 10 µM (inactive) | > 10 µM (inactive) | > 5.86 µM (inactive) | > 10 µM (inactive) | > 10 µM (inactive) | > 10 µM (inactive) | > 4.57 µM (inactive) | 9.68 µM (inactive) | 1.98 µM (inactive) | > 10 µM (inactive)
CNC(=O)Oc1ccc(-c2cn3cc(OC(=O)NC)ccc3n2)cc1 | 19.8 µM (inactive) | > 100 µM (inactive) | 43.3 µM (inactive) | 36.1 µM | 49.9 µM (inactive) | > 100 µM (inactive) | 51.1 µM (inactive) | > 100 µM (inactive) | 87.3 µM (inactive) | 31.7 µM (inactive) | 64.6 µM (inactive) | 28.4 µM (inactive) | 91.6 µM (inactive) | 44.1 µM (inactive) | > 100 µM (inactive) | 49.3 µM (inactive) | 33.1 µM (inactive) | 32.8 µM (inactive) | 41.4 µM (inactive) | 96.4 µM (inactive)
c1ccc(C(c2cccc3c2ccc2ccccc23)C(c2ccccc2)c2cccc3c2ccc2ccccc23)cc1 (stereo not given) | > 100 µM (inactive) | > 100 µM (inactive) | > 100 µM (inactive) | > 100 µM | > 100 µM (inactive) | > 100 µM (inactive) | > 100 µM (inactive) | > 100 µM (inactive) | > 100 µM (inactive) | > 100 µM (inactive) | > 100 µM (inactive) | > 100 µM (inactive) | > 100 µM (inactive) | > 100 µM (inactive) | > 100 µM (inactive) | > 100 µM (inactive) | > 100 µM (inactive) | > 100 µM (inactive) | > 100 µM (inactive) | > 100 µM (inactive)
O=C1OC(=O)C2=C1C(c1cccs1)C=C(c1cccnc1)N2c1ccncc1 (stereo not given) | 13 µM (inactive) | 24.9 µM (inactive) | 18 µM (inactive) | 14.2 µM | 12.2 µM (inactive) | 12.3 µM (inactive) | 20 µM (inactive) | 12.8 µM (inactive) | 17.6 µM (inactive) | 20 µM (inactive) | 20.9 µM (inactive) | 19.9 µM (inactive) | 17 µM (inactive) | 17.6 µM (inactive) | 19.9 µM (inactive) | 14.1 µM (inactive) | 14.3 µM (inactive) | 17.8 µM (inactive) | 17.5 µM (inactive) | 14 µM (inactive)

Reference: ChEMBL document CHEMBL1201862, “PubChem BioAssay data set” (2004)
